Data published in US11739124B2, “Acetyl-CoA carbosylase2 antisense oligonucleotides” (OLIPASS CORPORATION, priority 2018, dated 2023).

Experiments:
10-mer complementary DNA = experiment: Binding affinity for complementary DNA by Tm (UV/Vis); settings: aqueous buffer pH 7.16, 10 mM sodium phosphate, 100 mM NaCl; for Tm Value, 10-mer DNA against C-Terminal: duplex of PNA and 10-mer complementary DNA targeting the C-terminal of PNA; for Tm Value, 10-mer DNA against N-Terminal: duplex of PNA and 10-mer complementary DNA targeting the N-terminal of PNA
Experimental: The PNA derivatives of Formula I were evaluated for their binding affinity for 10-mer DNAs complementarily targeting either the N-terminal or C-terminal. The binding affinity was assessed by Tm value for the duplex between PNA and 10-mer complementary DNA. The duplex between PNA derivatives and fully complementary DNAs show Tm values too high to be reliably determined in aqueous buffer solution, since the buffer solution tends to boil during the Tm measurement. Tm values for full length PNAs can be predicted and compared based on the Tm value for the duplex between PNA and 10-mer complementary DNA.
Tm values were determined on a UV/Vis spectrometer as follows. A mixed solution of […] PNA oligomer and 4 μM complementary 10-mer DNA in 4 mL aqueous buffer (pH 7.16, 10 mM sodium phosphate, 100 mM NaCl) in 15 mL polypropylene falcon tube was incubated at 90° C. for a few minute and slowly cooled down to ambient temperature. Then the solution was transferred into a 3 mL quartz UV cuvette equipped with an air-tight cap, and the cuvette was mounted on an Agilent 8453 UV/Visible spectrophotometer. The absorbance changes at 260 nm were recorded with increasing the temperature of the cuvette by either 0.5 or 1° C. per minute. From the absorbance vs temperature curve, the temperature showing the largest increase rate in absorbance was read out as the Tm between PNA and 10-mer DNA. The DNAs for Tm measurement were purchased from Bioneer (www.bioneer.com, Dajeon, Republic of Korea) and used without further purification.

human ACC2 mRNA = experiment: Inhibition of ACC2 mRNA formation in C2C12 (Real-Time qPCR); type: cell-based, mouse; settings: C2C12 cells, 24 hours; for reduction of ACC2 mRNA compared to control: standardized by GAPDH; for amount of ACC2 mRNA: 100 zM to 1 fM, concentration-dependently
Experimental: “ASO 1” was evaluated by Real-Time qPCR for its ability to down-regulate the ACC2 mRNA formation in C2C12 as described below.
[Cell Culture & ASO Treatment] C2C12 cells (Cat. No. CRL-1772, ATCC) were maintained in Dulbecco Modified Eagle Medium (DMEM, Cat. No. 12-604F, Lonza) supplemented with 10% Fetal Bovine Serum (Cat. No. 10099-41, GIBCO) and 1% streptomycin/penicillin (Cat. No. 15140-122, GIBCO), which was grown at 37° C. and under 5% CO2 condition. C2C12 cells (2×10^5) stabilized for 24 hours in 60 mm culture dish were incubated for 24 hours with “ASO 1” at 0 (negative control) and 100 zM to 1 fM.
[RNA Extraction & cDNA Synthesis] Total RNA was extracted using RNeasy Mini kit (Qiagen, Cat. No. 714106) according to the manufacturer's instructions from “ASO 1” treated cells and cDNA was prepared from 400 ng of RNA by use of PrimeScript™ 1st strand cDNA Synthesis Kit (Takara, Cat. No. 6110A). To a mixture of 400 ng of RNA, 1 microliter of random hexamer, and 1 microliter of dNTP (10 mM) in PCR tube was added DEPC-treated water to a total volume of 10 microliter, which was reacted at 65° C. for 5 minutes. cDNA was synthesized by adding 10 microliter of PrimeScript RTase to the reaction mixture and reacting at 30° C. for 10 minutes and at 42° C. for 60 minutes, successively.
[Quantitative Real-Time PCR] In order to evaluate the expression level of […] ACC2 mRNA real-time qPCR was performed with synthesized cDNA by use of Tagman probe. The mixture of cDNA, Taqman probe (Thermo, Mm01204651), IQ supermix (BioRad, Cat. No. 170-8862), and nuclease free water in PCR tube was under reaction by use of CFX96 Touch Real-Time system (BioRad) according to the cycle conditions specified as follows: at 95° C. for 3 min (primary denaturation) followed by 50 cycles of 10 sec at 95° C. (denaturation) and 30 sec at 60° C. (annealing and polymerization). Fluorescence intensity was measured at the end of every cycle and the result of PCR was evaluated by the melting curve. After the threshold cycle (Ct) of each gene was standardized by that of GAPDH, the change of Ct was compared and analyzed.
“ASO 6” was evaluated by Real-Time qPCR for its ability to down-regulate the ACC2 mRNA formation in C2C12 as described below.
[Cell Culture & ASO Treatment] C2C12 cells (Cat. No. CRL-1772, ATCC) were maintained in Dulbecco Modified Eagle Medium (DMEM, Cat. No. 12-604F, Lonza) supplemented with 10% Fetal Bovine Serum (Cat. No. 10099-41, GIBCO) and 1% streptomycin/penicillin (Cat. No. 15140-122, GIBCO), which was grown at 37° C. and under 5% CO2 condition. C2C12 cells (2×10^5) stabilized for 24 hours in 60 mm culture dish were incubated for 24 hours with “ASO 6” at 0 (negative control) and 100 zM to 1 fM.
[RNA Extraction & cDNA Synthesis] Total RNA was extracted using RNeasy Mini kit (Qiagen, Cat. No. 714106) according to the manufacturer's instructions from “ASO 6” treated cells and cDNA was prepared from 400 ng of RNA by use of PrimeScript™ 1st strand cDNA Synthesis Kit (Takara, Cat. No. 6110A). To a mixture of 400 ng of RNA, 1 microliter of random hexamer, and 1 microliter of dNTP (10 mM) in PCR tube was added DEPC-treated water to a total volume of 10 microliter, which was reacted at 65° C. for 5 minutes. cDNA was synthesized by adding 10 microliter of PrimeScript RTase to the reaction mixture and reacting at 30° C. for 10 minutes and at 42° C. for 60 minutes, successively.
“ASO 5” was evaluated by the same method as described below.
[Cell Culture & ASO Treatment] C2C12 cells (Cat. No. CRL-1772, ATCC) were maintained in Dulbecco Modified Eagle Medium (DMEM, Cat. No. 12-604F, Lonza) supplemented with 10% Fetal Bovine Serum (Cat. No. 10099-41, GIBCO) and 1% streptomycin/penicillin (Cat. No. 15140-122, GIBCO), which was grown at 37° C. and under 5% CO2 condition. C2C12 cells (2×10^5) stabilized for 24 hours in 60 mm culture dish were incubated for 24 hours with “ASO 5” at 0 (negative control) and 100 zM to 1 fM.
[RNA Extraction & cDNA Synthesis] […]

ACC2 exon 12 = experiment: Exon skipping of ACC2 mRNA in C2C12 (nested RT-PCR, electrophoresis, Sanger sequencing); type: cell-based; settings: C2C12 cells, 5 hours, 0.1 aM to 1 fM
Experimental: “ASO 1” was evaluated for its ability to induce the skipping of ACC2 “exon 12” in C2C12 cells as described below.
[Cell Culture & ASO Treatment] C2C12 cells (2×10^5) (Cat. No. CRL-1772, ATCC) were grown in 60 mm culture dish containing DMEM medium (Dulbecco Modified Eagle Medium: DMEM) (Cat. No. 12-604F, Lonza) supplemented with 10% FBS (Fetal Bovine Serum) (Cat. No. 10099-41, GIBCO) and 1% streptomycin/penicillin (Cat. No. 15140-122, GIBCO) under 5% CO2 atmosphere at 37° C. The cells were treated either with nothing (negative control) or with an aliquot of aqueous stock solution of “ASO 1” for 5 hours at 100 zM to 1 fM.
[RNA Extraction & Nested PCR] Total RNA was extracted using RNeasy Mini kit (Qiagen, Cat. No. 714106) according to the manufacturer's instructions from “ASO 1” treated cells and cDNA was prepared from 200 ng of RNA by use of SuperScript™ III One-Step RT-PCR System (Cat. No. 12574-018, Invitrogen). […]
[Identification of Exon Skipping Products Electrophoresis] […] The target bands from “ASO 1” treatment were collected and analyzed by Sanger Sequencing to evaluate exon skipping sequence.

(N→C) Fethoc-AC(1O2)T-GA(5)C-GA(5)A-A(5)TG(5)-GC(1O2)-NH2 [ASO 4]
Tm Value, 10-mer DNA against C-Terminal (10-mer complementary DNA): 82.01 °C
Tm Value, 10-mer DNA against N-Terminal (10-mer complementary DNA): 80.01 °C

(N→C) Fethoc-CTG(6)-AC(1O2)G-A(5)AA(5)-TG(6)G-C(1O2)C—NH2 [ASO 6]
reduction of ACC2 mRNA compared to control (human ACC2 mRNA; 1 aM): 30%
reduction of ACC2 mRNA compared to control (human ACC2 mRNA; 1 fM): 50%
amount of ACC2 mRNA (human ACC2 mRNA): reduced

(N→C) Fethoc-CTG(6)-AC(1O2)G-A(5)AA(5)-TG(6)G-NH2 [ASO 5]
reduction of ACC2 mRNA compared to control (human ACC2 mRNA; 1 aM): 30%
reduction of ACC2 mRNA compared to control (human ACC2 mRNA; 1 fM): 42%
amount of ACC2 mRNA (human ACC2 mRNA): reduced

(N→C) Fethoc-CTG(6)-ACG(6)-AA(5)A-TG(6)G-C(1O2)C—NH2 (CTNACNANATNGNC; PNA with modified bases, Fethoc N-cap, C-amide; PNA modified oligonucleotide; (1)..(14) PNA modified oligonucleotide, human acetyl-CoA carboxylase2 targeted artificial sequence; (1)..(1) Carbamated N-terminal; modified_base (3)..(3) n is a, g, c, or t; modified_base (6)..(6) n is a, g, c, or t; modified_base (8)..(8) n is a, g, c, or t; modified_base (11)..(11) n is a, g, c, or t; modified_base (13)..(13) n is a, g, c, or t) [ASO 1, peptide nucleic acid derivative targeting the 5′ splice site of exon 12 in the human ACC2 pre-mRNA]
reduction of ACC2 mRNA compared to control (human ACC2 mRNA; 1 fM): 30%
amount of ACC2 mRNA (human ACC2 mRNA): reduced
Exon skipping (splice variant ACC2 mRNA) (ACC2 exon 12): concentration-dependently yielded the splice variant ACC2 mRNA lacking exon 11
Tm Value, 10-mer DNA against C-Terminal (10-mer complementary DNA): 79.60 °C
Tm Value, 10-mer DNA against N-Terminal (10-mer complementary DNA): 72.80 °C

(N→C) Fethoc-TA(5)C(1O2)-TGA(5)-CGA(5)-AA(5)T-G(6)GC(1O2)-C—NH2 [ASO 2]
Tm Value, 10-mer DNA against C-Terminal (10-mer complementary DNA): 82.01 °C
Tm Value, 10-mer DNA against N-Terminal (10-mer complementary DNA): 82.99 °C

(N→C) Fethoc-TA(5)C-TG(5)A-C(1O2)GA(5)-AA(5)T-G(5)G-NH2 [ASO 3]
Tm Value, 10-mer DNA against C-Terminal (10-mer complementary DNA): 78.99 °C
Tm Value, 10-mer DNA against N-Terminal (10-mer complementary DNA): 76.03 °C
